{"source": "patent US20200405697A1", "about": "“Antitumor Agent” (Taiho Pharmaceutical Co., Ltd, priority 2017, published 2020)", "key": {"GB-1 cells": {"tested_on": "GB-1 cells", "assay": "Cell proliferation inhibitory effect on human cancer cell lines: GB-1", "type": "cell-based", "conditions": "GB-1, Glioblastoma, DMEM + 10% FBS, 3000 cell/well", "procedure": "Human derived breast cancer cell line HCC 1806 cells (American Type Culture Collection, ATCC) were daily passaged at a cell density not exceeding 80% in ATCC recommended Roswell Park Memorial Institute medium (RPMI-1640) containing 10% fetal bovine serum (FBS). In order to start the test of cell proliferation inhibitory activity, HCC 1806 cells were suspended in the above medium, after seeing at 180 μL in each well of a 96-well flat bottom plate so that the number of cells per well was 2,000, the cells were cultured at 37° C. for 1 day in an incubator containing 5% carbon dioxide gas.\nOn the next day, the Example compound was dissolved in DMSO, and 20 μL of a drug additive solution diluted serially with distilled water to 10 times of the final concentration was added to each well of the culture plate of the cells, and the cells were cultured at 37° C. for 72 hours in an incubator containing 5% carbon dioxide gas. After culturing for 72 hours, 20 μL of glutaraldehyde was added to each well and allowed to stand for 30 minutes, then the plate was washed 10 times with water and was dried. 100 μL of a stain solution (0.05% crystal violet in a 20% methanol solution) was added to each well and allowed to stand for 30 minutes, then the plate was washed 10 times with water and was dried. 100 μL of an extract solution (0.1 N NaH2PO4: 100% ethanol=1:1) was added to each well and mixed, and the mixture was measured at a wavelength of 540 nm using a plate reader (MTP-450 manufactured by Corona Electric Co., Ltd.).\nThe growth inhibition rate was calculated from the following formula, and the concentration (IC50 (μM)) of a compound inhibiting 50% was determined.\nAccording to the method of Test Example 2, the cell proliferation inhibitory effect on various cancer cell lines as described in Table 24 was evaluated. […]"}, "MV-4-11": {"tested_on": "MV-4-11", "assay": "Antitumor effect in human-derived blood cancer cell line (MV-4-11) subcutaneous transplantation model (in vivo)", "parameters": "species or system nude mouse (BALB/cA Jcl-nu/nu)", "conditions": "oral, 100 mg/kg/day once per day for 14 days; RTV vs control group, Student-t test, p<0.05", "procedure": "A human-derived blood cancer cell line MV-4-11 was transplanted subcutaneously into a nude mouse (BALB/cA Jcl-nu/nu, CLEA Japan, Inc.), and at the time when the tumor volume of the nude mouse on which the engrafted tumor reached 100 to 300 mm^3, four mice were assigned to each group by random stratification so that the average of the tumor volumes of each group was uniform (day 0), and the Example compound was orally administered daily at 100 mg/kg/day once per day for 14 days. Example Compound dosing solutions were prepared using 0.5% HPMC.\nAn electric balance for animals was used in body weight measurement. Rate of change in body weight on day n (BWCn) from body weight on day n (BWn) was calculated according to the following equation.\nRate of change in body weight BWCn (%)=(BWn−BW0)/BW0×100\nTumor volume (TV) was calculated according to the following equation by sandwiching and measuring the major axis and the minor axis with a digital caliper.\nTumor volume (mm^3)=Major axis (mm)×Minor axis (mm)×Minor axis (mm)/2\nIn order to compare the chronological transition of proliferation of tumor for the administration of each compound, relative tumor volume (RTV) setting the tumor volume at the time of grouping as 1 as the tumor proliferation rate was calculated according to the following formula, and the transition of the average value of RTV of each individual are shown in FIGS. 1 to 4.\nRTV=(tumor volume at the day of tumor volume measurement)/(tumor volume at the time of the grouping)"}, "[1]": {"tested_on": "MV-4-11 (Human blood cancer cell line)", "assay": "Effect of combination of sulfonamide compound and other antitumor agent (CellTiter-Glo, combination index): MV-4-11"}, "[2]": {"conditions": "Example Compound 1 121 nM + Cytarabine 116 nM, molar ratio 1:0.9614"}, "[3]": {"conditions": "Example Compound 1 121 nM + Guadecitabine 11.9 nM, molar ratio 1:0.09807"}, "[4]": {"conditions": "Example Compound 1 182 nM + Cytarabine 175 nM, molar ratio 1:0.9614"}, "[5]": {"conditions": "Example Compound 1 182 nM + Decitabine 50.2 nM, molar ratio 1:0.2758"}, "[6]": {"conditions": "Example Compound 1 182 nM + Fludarabine nucleoside 4110 nM, molar ratio 1:22.56"}, "[7]": {"conditions": "Example Compound 1 182 nM + Guadecitabine 17.8 nM, molar ratio 1:0.09807"}, "[8]": {"conditions": "Example Compound 1 273 nM + Decitabine 75.3 nM, molar ratio 1:0.2758"}, "[9]": {"conditions": "Example Compound 1 273 nM + Fludarabine nucleoside 6160 nM, molar ratio 1:22.56"}, "[10]": {"conditions": "Example Compound 1 273 nM + Guadecitabine 26.8 nM, molar ratio 1:0.09807"}, "[11]": {"conditions": "Example Compound 1 409 nM + Cytarabine 393 nM, molar ratio 1:0.9614"}, "[12]": {"conditions": "Example Compound 1 409 nM + Decitabine 113 nM, molar ratio 1:0.2758"}, "[13]": {"conditions": "Example Compound 1 409 nM + Guadecitabine 40.1 nM, molar ratio 1:0.09807"}, "[14]": {"conditions": "Example Compound 1 613 nM + Decitabine 169 nM, molar ratio 1:0.2758"}, "[15]": {"conditions": "Example Compound 1 613 nM + Decitabine 589 nM, molar ratio 1:0.2758"}, "[16]": {"conditions": "Example Compound 1 613 nM + Guadecitabine 60.1 nM, molar ratio 1:0.09807"}, "[17]": {"conditions": "Example Compound 1 920 nM + Decitabine 254 nM, molar ratio 1:0.2758"}, "[18]": {"conditions": "Example Compound 1 920 nM + Guadecitabine […], molar ratio 1:0.09807"}}, "data": [{"smiles": "Cc1ccc(F)c([C@@H](C)[C@H](NS(=O)(=O)c2ccc(Br)cc2C(N)=O)c2n[nH]c(=O)o2)c1C", "note": "[Example 1, 5-bromo-2-(N-((1 S,2R)-2-(6-fluoro-2,3-dimethylphenyl)-1-(5-oxo-4,5-dihydro-1,3,4-oxadiazol-2-yl)propyl)sulfamoyl)benzamide]", "values": [{"measurement": "IC50", "setting": "GB-1 cells", "result": 1560, "unit": "nM"}, {"measurement": "antitumor effect (relative tumor volume, RTV)", "setting": "MV-4-11", "result": "antitumor effect"}, {"measurement": "CI value", "setting": "[1]; [2]", "result": 0.683}, {"measurement": "Fa value", "setting": "[1]; [2]", "result": 0.1611}, {"measurement": "CI value", "setting": "[1]; [3]", "result": 0.706}, {"measurement": "Fa value", "setting": "[1]; [3]", "result": 0.2186}, {"measurement": "CI value", "setting": "[1]; [4]", "result": 0.603}, {"measurement": "Fa value", "setting": "[1]; [4]", "result": 0.4508}, {"measurement": "CI value", "setting": "[1]; [5]", "result": 0.643}, {"measurement": "Fa value", "setting": "[1]; [5]", "result": 0.3873}, {"measurement": "CI value", "setting": "[1]; [6]", "result": 0.783}, {"measurement": "Fa value", "setting": "[1]; [6]", "result": 0.1868}, {"measurement": "CI value", "setting": "[1]; [7]", "result": 0.741}, {"measurement": "Fa value", "setting": "[1]; [7]", "result": 0.3225}, {"measurement": "CI value", "setting": "[1]; [8]", "result": 0.680}, {"measurement": "Fa value", "setting": "[1]; [8]", "result": 0.5342}, {"measurement": "CI value", "setting": "[1]; [9]", "result": 0.592}, {"measurement": "Fa value", "setting": "[1]; [9]", "result": 0.8795}, {"measurement": "CI value", "setting": "[1]; [10]", "result": 0.705}, {"measurement": "Fa value", "setting": "[1]; [10]", "result": 0.5192}, {"measurement": "CI value", "setting": "[1]; [11]", "result": 0.538}, {"measurement": "Fa value", "setting": "[1]; [11]", "result": 0.9443}, {"measurement": "CI value", "setting": "[1]; [12]", "result": 0.667}, {"measurement": "Fa value", "setting": "[1]; [12]", "result": 0.7570}, {"measurement": "CI value", "setting": "[1]; [13]", "result": 0.658}, {"measurement": "Fa value", "setting": "[1]; [13]", "result": 0.7788}, {"measurement": "CI value", "setting": "[1]; [14]", "result": 0.672}, {"measurement": "Fa value", "setting": "[1]; [14]", "result": 0.9292}, {"measurement": "CI value", "setting": "[1]; [15]", "result": 0.419}, {"measurement": "Fa value", "setting": "[1]; [15]", "result": 0.9960}, {"measurement": "CI value", "setting": "[1]; [16]", "result": 0.671}, {"measurement": "Fa value", "setting": "[1]; [16]", "result": 0.9347}, {"measurement": "CI value", "setting": "[1]; [17]", "result": 0.666}, {"measurement": "Fa value", "setting": "[1]; [17]", "result": 0.9900}, {"measurement": "CI value", "setting": "[1]; [18]", "result": 0.639}, {"measurement": "Fa value", "setting": "[1]; [18]", "result": 0.9921}]}]}
